Results on one molecule are retold here after patent US6551615B1, “Dexibuprofen-containing soft gelatin capsules and process for preparing the same” (M/s. Strides Arcolab Limited, priority 2001, dated 2003).

Structures are written as SMILES.

Data set [1] can be described thus: Compatibility of dexibuprofen with glycerin plasticizer. Type of data set: physicochemical. The settings on record: in some instances. An excerpt: In general, gelatin capsule formulations for soft gelatin capsules comprise raw gelatin and one or more plasticizers added to adjust the hardness of the capsule. Typical plasticizers include glycerin, sorbitol and Anidrisorb 85/70. A preferred plasticizer is Anidrisorb 85/70, an aqueous solution of D-sorbitol and sorbitans. […] One preferred gelatin formulation for the soft gelatin capsules used in accordance with preferred embodiments includes gelatin in the range of about 40% to 48% and a plasticizer ranging in amount from about 20% to 35%. Another preferred plasticizer is sorbitol BP, a non-crystallizing sorbitol solution. When either a 70%, non-crystallizing sorbitol solution or Anidrisorb 85/70 are used alone, the amount of plasticizer used preferaby ranges from about 25% to 35%. Capsule formulations can also include other suitable additives, for example coloring agents, which impart specific characteristics such as the look and feel of the capsule. FD&C dyes and D & C dyes are examples of pharmaceutically acceptable coloring agents that may be used in preferred embodiments.

For data set [2] the following is noted: cited from earlier work.

In the case of `CC(C)Cc1ccc([C@H](C)C(=O)O)cc1` [Dexibuprofen, (S)-(+)-2-(4-isobutylphenyl)propionic acid], the “Reaction with glycerin (plasticizer of the capsule shell)” value in data set [1] was “forming unwanted glycerol esters of dexibuprofen”. Moreover, the Solubility in acetone result in data set [2] (acetone) is on record as “freely soluble”. In addition, the “Solubility in aqueous solutions of alkali hydroxides and carbonates” value in data set [2] (aqueous solutions of alkali hydroxides and carbonates) is listed as “soluble”. In addition, in data set [2] (methanol), the Solubility in methanol entry is reported as “freely soluble”. Also, in data set [2] (methylene chloride), the “Solubility in methylene chloride” value was “freely soluble”. Also, the “Solubility in most organic solvents” value in data set [2] (most organic solvents) was “readily soluble”. Besides, in data set [2] (water), the Solubility in water result is on record as “practically insoluble”.
